From patent publication US11377442B2, “Small molecule agonists and antagonists of NR2F6 activity” (ZANDER THERAPEUTICS, INC., priority 2016, dated 2022)
Where two headings read alike, the source gives them in different places.

Molecular target: T1, NR2F6 (Homo sapiens, UniProt P10588)
T1 construct: expressed in transfected cells; also transient transfection
T1 sequence (P10588 1-404): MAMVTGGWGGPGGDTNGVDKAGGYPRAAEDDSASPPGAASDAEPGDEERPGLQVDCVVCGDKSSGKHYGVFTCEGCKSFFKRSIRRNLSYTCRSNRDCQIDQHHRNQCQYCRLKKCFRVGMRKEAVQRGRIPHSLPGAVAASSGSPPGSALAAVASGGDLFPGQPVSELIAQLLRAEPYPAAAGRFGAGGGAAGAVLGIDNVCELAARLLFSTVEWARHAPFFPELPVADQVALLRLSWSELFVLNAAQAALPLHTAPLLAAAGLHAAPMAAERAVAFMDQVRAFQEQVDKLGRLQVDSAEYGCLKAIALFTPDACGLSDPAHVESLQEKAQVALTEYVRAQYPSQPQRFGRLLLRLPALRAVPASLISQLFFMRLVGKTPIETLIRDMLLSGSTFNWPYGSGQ
Assay: NR2F6 agonist screening, Firefly signal cmpd/DMSO
Format: cell-based
Set-up: Firefly NR2F6 full length, cmpd/DMSO (mean) / Firefly F4, cmpd/DMSO (mean): unit of the concentration uncertain
Settings: for Firefly/Renilla (NR2F6 stable, clone F4): ratio Firefly/Renilla; for Firefly, NR2F6 stable (clone F4)/pGL4: ratio of Firefly in NR2F6 stable clone F4 to pGL4

[1] = Concentration 2 (unit uncertain)
[2] = Concentration 10 (unit uncertain)
[3] = Concentration 40 (unit uncertain)
[4] = C11 analogs follow set (Tables 2-10), repeat 1
[5] = C11 analogs follow set (Tables 2-10), repeat 2

COc1ccc(S(=O)(=O)NCc2nc3nc(C)cc(C)n3n2)cc1OC [Compound E8]
Firefly F4, cmpd/DMSO (mean) [1]: 1.0 | Firefly NR2F6 full length, cmpd/DMSO (mean) [1]: 1.2 | Firefly F4, cmpd/DMSO (mean) [2]: 1.0 | Firefly NR2F6 full length, cmpd/DMSO (mean) [2]: 1.2 | Firefly F4, cmpd/DMSO (mean) [3]: 0.7 | Firefly NR2F6 full length, cmpd/DMSO (mean) [3]: 0.9

O=C(Nc1ccc(Cl)cc1)c1ccc2oc(=O)c(S(=O)(=O)c3ccc(F)cc3)cc2c1 [Compound C129]
Firefly, cmpd/DMSO repeat 1 [4]: 0.9 | Firefly, cmpd/DMSO repeat 2 [5]: 1.2

Cc1ccc(S(=O)(=O)c2cc3cc(C(=O)Nc4ccc(C)c(C)c4)ccc3oc2=O)cc1 [Compound C168]
Firefly, cmpd/DMSO repeat 1 [4]: 11.8 | Firefly, cmpd/DMSO repeat 2 [5]: 11.4

O=c1oc2c(Br)cc(Br)cc2cc1S(=O)(=O)c1ccc(Cl)cc1 [Compound C286]
Firefly, cmpd/DMSO repeat 1 (Table 11, repeat 1): 2.3 | Firefly, cmpd/DMSO repeat 2 (Table 11, repeat 2): 2.4

COc1ccc(NC(=O)c2ccc3oc(=O)c(S(=O)(=O)c4ccccc4)cc3c2)cc1 [Compound C177]
Firefly, cmpd/DMSO repeat 1 [4]: 17.4 | Firefly, cmpd/DMSO repeat 2 [5]: 8.2 | Firefly/Renilla (NR2F6 stable, clone F4) (Table 12): 2.3 | Firefly, NR2F6 stable (clone F4)/pGL4 (Table 12): 8.5 | Firefly, cmpd/DMSO repeat 1 (Table 12, repeat 1): 17.4 | Firefly, cmpd/DMSO repeat 2 (Table 12, repeat 2): 8.2

COc1cc(Br)cc2cc(S(=O)(=O)c3ccc(F)c(C)c3)c(=O)oc12 [Compound C298]
Firefly, cmpd/DMSO repeat 1 (Table 11, repeat 1): 2.2 | Firefly, cmpd/DMSO repeat 2 (Table 11, repeat 2): 3.2

CCOc1cccc2cc(S(=O)(=O)c3ccc(OC)c(OC)c3)c(=O)oc12 [Compound C248]
Firefly, cmpd/DMSO repeat 1 (Table 9, repeat 1): 8.6 | Firefly, cmpd/DMSO repeat 2 (Table 9, repeat 2): 4.3 | Firefly/Renilla (NR2F6 stable, clone F4) (Table 12): 2.8 | Firefly, NR2F6 stable (clone F4)/pGL4 (Table 12): 4.6 | Firefly, cmpd/DMSO repeat 1 (Table 12, repeat 1): 8.6 | Firefly, cmpd/DMSO repeat 2 (Table 12, repeat 2): 4.3

COc1ccc(-c2noc(Cn3ncc(Cl)cc3=O)n2)cc1 [Compound Z142]
Firefly, cmpd/DMSO (mean): 1.1

COc1cccc(-c2noc(Cn3ncc(C)c(C)c3=O)n2)c1 [Compound Z139]
Firefly, cmpd/DMSO (mean): 1.5

O=c1oc2ccc(F)cc2cc1S(=O)(=O)c1ccccc1 [Compound C212]
Firefly, cmpd/DMSO repeat 1 [4]: 1.7 | Firefly, cmpd/DMSO repeat 2 [5]: 1.9

CCOc1cccc2cc(S(=O)(=O)c3ccc(C)c(C)c3)c(=O)oc12 [Compound C243]
Firefly, cmpd/DMSO repeat 1 (Table 9, repeat 1): 2.0 | Firefly, cmpd/DMSO repeat 2 (Table 9, repeat 2): 3.3

COc1ccc2cc(S(=O)(=O)c3ccccc3)c(=O)oc2c1 [Compound C264]
Firefly, cmpd/DMSO repeat 1 [4]: 1.1 | Firefly, cmpd/DMSO repeat 2 [5]: 0.8

CC(C)(C)c1ccc(S(=O)(=O)c2cc3cc([N+](=O)[O-])ccc3oc2=O)cc1 [Compound C139]
Firefly, cmpd/DMSO repeat 1 [4]: 6.6 | Firefly, cmpd/DMSO repeat 2 [5]: 6.4

Cc1cc(S(=O)(=O)c2cc3cc(Br)ccc3oc2=O)ccc1F [Compound C223]
Firefly, cmpd/DMSO repeat 1 [4]: 4.5 | Firefly, cmpd/DMSO repeat 2 [5]: 5.1

Cc1ccc(S(=O)(=O)NCc2cn3ccccc3n2)c(C)c1 [Compound E24]
Firefly F4, cmpd/DMSO (mean) [1]: 1.0 | Firefly NR2F6 full length, cmpd/DMSO (mean) [1]: 1.0 | Firefly F4, cmpd/DMSO (mean) [2]: 0.9 | Firefly NR2F6 full length, cmpd/DMSO (mean) [2]: 1.1 | Firefly F4, cmpd/DMSO (mean) [3]: 0.7 | Firefly NR2F6 full length, cmpd/DMSO (mean) [3]: 1.1

Cc1cc(C)nc(Sc2nnc(-c3ccc(C)c(S(=O)(=O)N4CCOCC4)c3)c3ccccc23)n1 [Compound F1]
Firefly, cmpd/DMSO (mean) (mean of repeats): 5.1 | Firefly, cmpd repeat 1 (raw signal, repeat 1): 310 | Firefly, cmpd repeat 2 (raw signal, repeat 2): 252 | Firefly, cmpd/DMSO repeat 1 (repeat 1): 5.6 | Firefly, cmpd/DMSO repeat 2 (repeat 2): 4.6

O=c1oc2c(Br)cc(Br)cc2cc1S(=O)(=O)c1ccc(Cl)c(Cl)c1 [Compound C287]
Firefly, cmpd/DMSO repeat 1 (Table 11, repeat 1): 3.0 | Firefly, cmpd/DMSO repeat 2 (Table 11, repeat 2): 2.6

COc1cccc2cc(S(=O)(=O)c3ccccc3F)c(=O)oc12 [Compound C253]
Firefly, cmpd/DMSO repeat 1 (Table 9, repeat 1): 2.5 | Firefly, cmpd/DMSO repeat 2 (Table 9, repeat 2): 2.7

O=c1oc2c(F)cc(F)cc2cc1S(=O)(=O)c1ccc(Cl)cc1 [Compound C293]
Firefly, cmpd/DMSO repeat 1 (Table 11, repeat 1): 8.5 | Firefly, cmpd/DMSO repeat 2 (Table 11, repeat 2): 11.9

Cc1ccc(NC(=O)c2ccc3oc(=O)c(S(=O)(=O)c4ccccc4)cc3c2)cc1C [Compound C167]
Firefly, cmpd/DMSO repeat 1 [4]: 1.0 | Firefly, cmpd/DMSO repeat 2 [5]: 0.7

COc1ccc(NC(=O)c2ccc3oc(=O)c(S(=O)(=O)c4ccc(F)cc4)cc3c2)cc1 [Compound C179]
Firefly, cmpd/DMSO repeat 1 [4]: 8.7 | Firefly, cmpd/DMSO repeat 2 [5]: 10.1

COc1ccc2cc(S(=O)(=O)c3cccc(C#N)c3)c(=O)oc2c1 [Compound C263]
Firefly, cmpd/DMSO repeat 1 [4]: 1.8 | Firefly, cmpd/DMSO repeat 2 [5]: 1.7

O=c1oc2ccc(Cl)cc2cc1S(=O)(=O)c1ccc(Br)cc1 [Compound C204]
Firefly, cmpd/DMSO repeat 1 [4]: 5.0 | Firefly, cmpd/DMSO repeat 2 [5]: 5.8

Cc1ccc(S(=O)(=O)N(Cc2nc3nc(C)c(S)c(C)n3n2)c2ccccc2)cc1 [Compound E57]
Firefly F4, cmpd/DMSO (mean) [1]: 1.0 | Firefly NR2F6 full length, cmpd/DMSO (mean) [1]: 1.3 | Firefly F4, cmpd/DMSO (mean) [2]: 1.3 | Firefly NR2F6 full length, cmpd/DMSO (mean) [2]: 1.2 | Firefly F4, cmpd/DMSO (mean) [3]: 1.3 | Firefly NR2F6 full length, cmpd/DMSO (mean) [3]: 0.9

O=C(NCc1ccccc1)c1ccc2oc(=O)c(S(=O)(=O)c3ccccc3)cc2c1 [Compound C115]
Firefly, cmpd/DMSO repeat 1 [4]: 6.8 | Firefly, cmpd/DMSO repeat 2 [5]: 21.9

O=c1oc2ccc(Cl)cc2cc1S(=O)(=O)c1cccc(F)c1 [Compound C182]
Firefly, cmpd/DMSO repeat 1 [4]: 16.2 | Firefly, cmpd/DMSO repeat 2 [5]: 17.3 | Firefly/Renilla (NR2F6 stable, clone F4) (Table 13): 1.2 | Firefly, NR2F6 stable (clone F4)/pGL4 (Table 13): 8.2 | Firefly, cmpd/DMSO repeat 1 (Table 13, repeat 1): 16.2 | Firefly, cmpd/DMSO repeat 2 (Table 13, repeat 2): 17.3

CC(C)(C)c1ccc(S(=O)(=O)c2cc3cc(Cl)ccc3oc2=O)cc1 [Compound C205]
Firefly, cmpd/DMSO repeat 1 [4]: 6.9 | Firefly, cmpd/DMSO repeat 2 [5]: 6.0

CC(C)c1ccc(S(=O)(=O)c2cc3cc(Cl)ccc3oc2=O)cc1 [Compound C140]
Firefly, cmpd/DMSO repeat 1 [4]: 12.8 | Firefly, cmpd/DMSO repeat 2 [5]: 12.0

Cc1cc(C)cc(S(=O)(=O)c2cc3cc(Br)ccc3oc2=O)c1 [Compound C187]
Firefly, cmpd/DMSO repeat 1 [4]: 0.8 | Firefly, cmpd/DMSO repeat 2 [5]: 0.7

Cc1ccc(NC(=O)c2ccc3oc(=O)c(S(=O)(=O)c4ccccc4)cc3c2)cc1 [Compound C161]
Firefly, cmpd/DMSO repeat 1 [4]: 35.4 | Firefly, cmpd/DMSO repeat 2 [5]: 39.0 | Firefly/Renilla (NR2F6 stable, clone F4) (Table 13): 1.3 | Firefly, NR2F6 stable (clone F4)/pGL4 (Table 13): 8.1 | Firefly, cmpd/DMSO repeat 1 (Table 13, repeat 1): 35.4 | Firefly, cmpd/DMSO repeat 2 (Table 13, repeat 2): 39.0

Cc1ccc(S(=O)(=O)c2cc3cc([N+](=O)[O-])ccc3oc2=O)cc1 [Compound C211]
Firefly, cmpd/DMSO repeat 1 [4]: 5.8 | Firefly, cmpd/DMSO repeat 2 [5]: 17.7

Cc1ccccc1NC(=O)c1ccc2oc(=O)c(S(=O)(=O)c3ccc(F)cc3)cc2c1 [Compound C160]
Firefly, cmpd/DMSO repeat 1 [4]: 22.9 | Firefly, cmpd/DMSO repeat 2 [5]: 20.2 | Firefly/Renilla (NR2F6 stable, clone F4) (Table 12): 2.4 | Firefly, NR2F6 stable (clone F4)/pGL4 (Table 12): 7.2 | Firefly, cmpd/DMSO repeat 1 (Table 12, repeat 1): 22.9 | Firefly, cmpd/DMSO repeat 2 (Table 12, repeat 2): 20.2

CC(C)(C)c1ccc(S(=O)(=O)c2cc3cc(F)ccc3oc2=O)cc1 [Compound C216]
Firefly, cmpd/DMSO repeat 1 [4]: 1.3 | Firefly, cmpd/DMSO repeat 2 [5]: 1.0

CCOc1ccccc1NC(=O)c1ccc2oc(=O)c(S(=O)(=O)c3ccc(F)cc3)cc2c1 [Compound C181]
Firefly, cmpd/DMSO repeat 1 [4]: 10.4 | Firefly, cmpd/DMSO repeat 2 [5]: 13.5

COc1ccc2cc(S(=O)(=O)c3cc(C)cc(C)c3)c(=O)oc2c1 [Compound C260]
Firefly, cmpd/DMSO repeat 1 [4]: 1.0 | Firefly, cmpd/DMSO repeat 2 [5]: 1.0

COc1cccc2cc(S(=O)(=O)c3cc(C)cc(C)c3)c(=O)oc12 [Compound C227]
Firefly, cmpd/DMSO repeat 1 (Table 9, repeat 1): 1.0 | Firefly, cmpd/DMSO repeat 2 (Table 9, repeat 2): 1.3
